How the values were obtained:
C1b domain of human PKCα = biological target: T1, C1b domain of human PKCα (Homo sapiens, UniProt P17252); test: biochemical; assay type: binding; conditions: 3H-PDBu competition
T1 construct: Genes encoding C1b domains of human PKCα, δ, ε, θ, and PKD1 (PKCμ) were synthesized; made in house; host or cells: E. coli BL21(DE3)

human PBMC cells = test: Cytokine/chemokine gene expression in human PBMC (TaqMan); assay type: cell-based; conditions: 4 h;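 on Gene Relative Expression CCL2: 2^-ΔΔCt fold change vs DMSO control normalized to 18S and GAPDH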;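 on Gene Relative Expression GM-CSF: 2^-ΔΔCt fold change vs DMSO control normalized to 18S and GAPDH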;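 on Gene Relative Expression IFN-α: 2^-ΔΔCt fold change vs DMSO control normalized to 18S and GAPDH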;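 on Gene Relative Expression IFNγ: 2^-ΔΔCt fold change vs DMSO control normalized to 18S and GAPDH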
Procedure: Each treatment condition was performed in duplicates.

Hela cells = test: In vitro scratch wound healing assay; assay type: cell-based; conditions: 24h
Procedure: Scratch wound healing assay creates a gap by scratching a confluent monolayer of cells to mimic a wound and then measures the ability of cells to fill up the gap (wound) in the presence of DMSO or test compounds. 1.2-1.5×10^5 Hela cells in 1 mL media RPMI-1640 with 10% FBS were seeded in 24-well plates. Cells were starved for overnight in the same media without FBS when cells became confluent. After starvation, a scratch was made in the middle of the well and the plates were washed three times to remove detached cells. DMSO or different concentrations of compounds were diluted and added to the cells. The assay plates were put into Incucyte S3 and scanned with 4× scanner setting regularly. The imaging results were exported and the wound area was analyzed by ImageJ. Wound healing or closure was calculated by the following formula: wound healing %=(wound area at 0h−wound area at 24h)/wound area 0h*100%. Relative wound healing was calculated by dividing wound healing % of compound treatment to that of DMSO*100%.

[1] = system: NFκB-driven transcription in HeLa-NFκB luciferase reporter cell line; test: NFκB luciferase reporter assay; conditions: Homo sapiens, HeLa, 16 h, read-out: NFκB-luc HeLa cells EC50 (μM)
C1b domain of human PKCε = biological target: T2, C1b domain of human PKCε (Homo sapiens, UniProt Q02156); test: biochemical; assay type: binding; conditions: 3H-PDBu competition
T2 construct: Genes encoding C1b domains of human PKCα, δ, ε, θ, and PKD1 (PKCμ) were synthesized; made in house; host or cells: E. coli BL21(DE3)
Procedure, shortened: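 Ki derived by Cheng-Prusoff from IC50, with each protein batch's measured ^3H-PDBu Kd. Displacement of ^3H-PDBu from E. coli-produced GST-fused C1b domains or full-length human PKC was run 10 min at 37°C plus 20 min on ice, with filter capture and scintillation counting.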

T2 sequence (Q02156 242-292 limits assumed): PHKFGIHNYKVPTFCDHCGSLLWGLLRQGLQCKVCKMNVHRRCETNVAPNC

## CC1=C[C@H]2[C@@]3(O)[C@H](C)C[C@]4(OC(=O)[C@@H](N)[C@]56C[C@H]7C[C@H](C[C@H](C7)C5)C6)[C@H]([C@@H]3C=C(CO)C[C@]2(O)C1=O)C4(C)C
C1b domain of human PKCα
  Ki: 10 to 30 nM
Human PBMC cells; 0.01 μM
  Gene Relative Expression CCL2: 5.58
  Gene Relative Expression GM-CSF: 1.59
  Gene Relative Expression IFN-α: 0.78
  Gene Relative Expression IFNγ: 1.69
  Gene Relative Expression IL-1β: 0.59
  Gene Relative Expression IL-2: 3.06
  Gene Relative Expression IL-4: 0.84
  Gene Relative Expression IL-6: 1.17
  Gene Relative Expression IL-8: 0.71
  Gene Relative Expression IL-10: 1.12
  Gene Relative Expression IL-12p40: 0.89
  Gene Relative Expression IL-12p70: 1.03
  Gene Relative Expression IL-13: 3.10
  Gene Relative Expression IL-18: 0.26
  Gene Relative Expression ISG15: 1.01
  Gene Relative Expression MIP1a (CCL3): 1.65
  Gene Relative Expression MX1: 0.84
  Gene Relative Expression OAS1: 0.74
  Gene Relative Expression TNF-α: 2.39
Human PBMC cells; 0.03 μM
  Gene Relative Expression CCL2: 3.59
  Gene Relative Expression GM-CSF: 8.38
  Gene Relative Expression IFN-α: 0.46
  Gene Relative Expression IFNγ: 3.82
  Gene Relative Expression IL-1β: 2.26
  Gene Relative Expression IL-2: 7.78
  Gene Relative Expression IL-4: 2.54
  Gene Relative Expression IL-6: 0.86
  Gene Relative Expression IL-8: 0.54
  Gene Relative Expression IL-10: 0.41
  Gene Relative Expression IL-12p40: 0.32
  Gene Relative Expression IL-12p70: 0.87
  Gene Relative Expression IL-13: 52.65
  Gene Relative Expression IL-18: 0.06
  Gene Relative Expression ISG15: 1.33
  Gene Relative Expression MIP1a (CCL3): 2.82
  Gene Relative Expression MX1: 1.01
  Gene Relative Expression OAS1: 0.78
  Gene Relative Expression TNF-α: 4.48
Human PBMC cells; 0.10 μM
  Gene Relative Expression CCL2: 0.38
  Gene Relative Expression GM-CSF: 16.06
  Gene Relative Expression IFN-α: 0.31
  Gene Relative Expression IFNγ: 18.08
  Gene Relative Expression IL-1β: 3.00
  Gene Relative Expression IL-2: 3.29
  Gene Relative Expression IL-4: 2.77
  Gene Relative Expression IL-6: 6.72
  Gene Relative Expression IL-8: 0.60
  Gene Relative Expression IL-10: 0.09
  Gene Relative Expression IL-12p40: 0.22
  Gene Relative Expression IL-12p70: 0.76
  Gene Relative Expression IL-13: 101.38
  Gene Relative Expression IL-18: 0.06
  Gene Relative Expression ISG15: 1.54
  Gene Relative Expression MIP1a (CCL3): 5.73
  Gene Relative Expression MX1: 0.99
  Gene Relative Expression OAS1: 0.69
  Gene Relative Expression TNF-α: 6.25
Hela cells; 3 nM
  Relative wound healing to control (%): 191%
Hela cells; 10 nM
  Relative wound healing to control (%): 198%
Hela cells; 30 nM
  Relative wound healing to control (%): 272%
[1]
  EC50: 0.001 to 0.01 µM

## CC1=C[C@H]2[C@@]3(O)[C@H](C)C[C@]4(OC(=O)[C@H](N)CCCCCCc5ccccc5)[C@H]([C@@H]3C=C(CO)C[C@]2(O)C1=O)C4(C)C
C1b domain of human PKCε
  Ki: 10 to 30 nM
Human PBMC cells; 0.03 μM
  Gene Relative Expression CCL2: 4.55
  Gene Relative Expression GM-CSF: 1.89
  Gene Relative Expression IFN-α: 1.66
  Gene Relative Expression IFNγ: 1.62
  Gene Relative Expression IL-1β: 0.54
  Gene Relative Expression IL-2: 1.71
  Gene Relative Expression IL-6: 0.74
  Gene Relative Expression IL-8: 0.80
  Gene Relative Expression IL-10: 1.27
  Gene Relative Expression IL-12p40: 0.74
  Gene Relative Expression IL-12p70: 1.02
  Gene Relative Expression IL-13: 0.40
  Gene Relative Expression IL-18: 0.47
  Gene Relative Expression ISG15: 0.97
  Gene Relative Expression MIP1a (CCL3): 1.86
  Gene Relative Expression MX1: 0.65
  Gene Relative Expression OAS1: 0.64
  Gene Relative Expression TNF-α: 1.38
Human PBMC cells; 0.10 μM
  Gene Relative Expression CCL2: 3.12
  Gene Relative Expression GM-CSF: 7.74
  Gene Relative Expression IFN-α: 0.73
  Gene Relative Expression IFNγ: 3.47
  Gene Relative Expression IL-1β: 1.58
  Gene Relative Expression IL-2: 7.65
  Gene Relative Expression IL-4: 1.61
  Gene Relative Expression IL-6: 1.14
  Gene Relative Expression IL-8: 0.53
  Gene Relative Expression IL-10: 0.48
  Gene Relative Expression IL-12p40: 0.45
  Gene Relative Expression IL-12p70: 0.93
  Gene Relative Expression IL-13: 47.45
  Gene Relative Expression IL-18: 0.09
  Gene Relative Expression ISG15: 1.16
  Gene Relative Expression MIP1a (CCL3): 2.39
  Gene Relative Expression MX1: 0.72
  Gene Relative Expression OAS1: 0.55
  Gene Relative Expression TNF-α: 4.04
Human PBMC cells; 0.3 μM
  Gene Relative Expression CCL2: 2.09
  Gene Relative Expression GM-CSF: 10.50
  Gene Relative Expression IFN-α: 0.95
  Gene Relative Expression IFNγ: 18.57
  Gene Relative Expression IL-1β: 1.53
  Gene Relative Expression IL-2: 3.41
  Gene Relative Expression IL-4: 2.57
  Gene Relative Expression IL-6: 4.85
  Gene Relative Expression IL-8: 0.59
  Gene Relative Expression IL-10: 0.06
  Gene Relative Expression IL-12p40: 0.69
  Gene Relative Expression IL-12p70: 0.61
  Gene Relative Expression IL-13: 78.90
  Gene Relative Expression IL-18: 0.04
  Gene Relative Expression ISG15: 1.14
  Gene Relative Expression MIP1a (CCL3): 3.37
  Gene Relative Expression MX1: 0.57
  Gene Relative Expression OAS1: 0.42
  Gene Relative Expression TNF-α: 4.13
Hela cells; 10 nM
  Relative wound healing to control (%): 221%
Hela cells; 30 nM
  Relative wound healing to control (%): 239%
Hela cells; 100 nM
  Relative wound healing to control (%): 263%
[1]
  EC50: 0.01 to 0.03 µM

## CC1=C[C@H]2[C@@]3(O)[C@H](C)C[C@]4(OC(=O)[C@@H](N)CCCCCCc5ccccc5)[C@H]([C@@H]3C=C(CO)C[C@]2(O)C1=O)C4(C)C
C1b domain of human PKCε
  Ki: 10 to 30 nM
Human PBMC cells; 0.01 μM
  Gene Relative Expression CCL2: 1.81
  Gene Relative Expression GM-CSF: 1.00
  Gene Relative Expression IFN-α: 0.73
  Gene Relative Expression IFNγ: 1.46
  Gene Relative Expression IL-1β: 0.38
  Gene Relative Expression IL-2: 1.32
  Gene Relative Expression IL-6: 0.57
  Gene Relative Expression IL-8: 0.44
  Gene Relative Expression IL-10: 1.59
  Gene Relative Expression IL-12p40: 0.34
  Gene Relative Expression IL-12p70: 1.05
  Gene Relative Expression IL-13: 0.37
  Gene Relative Expression IL-18: 0.63
  Gene Relative Expression ISG15: 0.94
  Gene Relative Expression MIP1a (CCL3): 1.29
  Gene Relative Expression MX1: 0.77
  Gene Relative Expression OAS1: 0.85
  Gene Relative Expression TNF-α: 1.34
Human PBMC cells; 0.03 μM
  Gene Relative Expression CCL2: 6.53
  Gene Relative Expression GM-CSF: 1.88
  Gene Relative Expression IFN-α: 1.21
  Gene Relative Expression IFNγ: 1.49
  Gene Relative Expression IL-1β: 0.94
  Gene Relative Expression IL-2: 3.59
  Gene Relative Expression IL-4: 1.19
  Gene Relative Expression IL-6: 1.23
  Gene Relative Expression IL-8: 0.66
  Gene Relative Expression IL-10: 0.86
  Gene Relative Expression IL-12p40: 0.38
  Gene Relative Expression IL-12p70: 0.96
  Gene Relative Expression IL-13: 5.87
  Gene Relative Expression IL-18: 0.19
  Gene Relative Expression ISG15: 0.97
  Gene Relative Expression MIP1a (CCL3): 1.67
  Gene Relative Expression MX1: 0.65
  Gene Relative Expression OAS1: 0.55
  Gene Relative Expression TNF-α: 2.91
Human PBMC cells; 0.10 μM
  Gene Relative Expression CCL2: 0.40
  Gene Relative Expression GM-CSF: 21.01
  Gene Relative Expression IFN-α: 0.80
  Gene Relative Expression IFNγ: 11.33
  Gene Relative Expression IL-1β: 3.00
  Gene Relative Expression IL-2: 4.98
  Gene Relative Expression IL-4: 2.78
  Gene Relative Expression IL-6: 6.15
  Gene Relative Expression IL-8: 0.44
  Gene Relative Expression IL-10: 0.12
  Gene Relative Expression IL-12p70: 0.74
  Gene Relative Expression IL-13: 121.59
  Gene Relative Expression IL-18: 0.05
  Gene Relative Expression ISG15: 1.57
  Gene Relative Expression MIP1a (CCL3): 4.95
  Gene Relative Expression MX1: 1.06
  Gene Relative Expression OAS1: 0.71
  Gene Relative Expression TNF-α: 6.52
Hela cells; 3 nM
  Relative wound healing to control (%): 162%
Hela cells; 10 nM
  Relative wound healing to control (%): 237%
Hela cells; 30 nM
  Relative wound healing to control (%): 267%
[1]
  EC50: 0.001 to 0.01 µM

Reference: patent publication US20240197666A1, “DITERPENOID COMPOUNDS THAT ACT ON PROTEIN KINASE C (PKC)” (K-Gen Therapeutics, Inc., priority 2021, published 2024)
